Data from patent publication US7524503B2, “Human cytomegalovirus (HCMV) cytotoxic T cell epitopes, polyepitopes compositions comprising same and diagnostic and prophylactic and therapeutic uses therefor” (priority 2001, dated 2009).

How the values were obtained:
HLA B27 = experiment: MHC stabilization assay on T2 cells; format: cell-based, human; details: HLA B27 on transfected T2 cells; relative increase vs no peptide at 26° C.
[1] = test system: PBMC from healthy HCMV seropositive donors; experiment: IFN-γ ELISPOT assay; format: cell-based, human; details: peptide 10 μg/ml
In short: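 PBMC from healthy HCMV-seropositive donors (2.5×10^5 cells/well) were stimulated 18 h at 37° C with individual synthetic HCMV peptides (10 μg/ml) on anti-IFN-γ-coated nitrocellulose. IFN-γ spots were developed with biotinylated antibody and streptavidin-alkaline phosphatase and counted automatically. Counts were averaged over 3 wells, and no-peptide wells were subtracted.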

HLA B8 = experiment: MHC stabilization assay on T2 cells; format: cell-based, human; details: HLA B8 on transfected T2 cells; relative increase vs no peptide at 26° C.
[2] = test system: peptide-sensitized autologous PHA blasts or LCLs; format: cell-based, human; set-up: key to CTL response: Y: Yes; ND: Not detected; details: predicted epitopes, Table 3
HLA B7 = target: T1, HLA B7 (Homo sapiens, UniProt P01889); format: cell-based; details: HLA B7 on transfected T2 cells; relative increase vs no peptide at 26° C.
T1 construct: expressed in transfected cells; host or cells: T2 cells
T1 sequence (P01889 25-362): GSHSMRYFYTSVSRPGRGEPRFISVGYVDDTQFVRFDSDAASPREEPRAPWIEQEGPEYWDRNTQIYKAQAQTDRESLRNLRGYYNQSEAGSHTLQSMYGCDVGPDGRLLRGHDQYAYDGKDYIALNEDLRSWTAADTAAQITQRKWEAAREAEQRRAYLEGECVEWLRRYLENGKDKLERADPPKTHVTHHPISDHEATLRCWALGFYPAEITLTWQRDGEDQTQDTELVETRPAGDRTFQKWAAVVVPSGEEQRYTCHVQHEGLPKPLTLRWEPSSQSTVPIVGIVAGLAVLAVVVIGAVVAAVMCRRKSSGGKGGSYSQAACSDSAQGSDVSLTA
T1 sequence (P61769 21-119, further chain): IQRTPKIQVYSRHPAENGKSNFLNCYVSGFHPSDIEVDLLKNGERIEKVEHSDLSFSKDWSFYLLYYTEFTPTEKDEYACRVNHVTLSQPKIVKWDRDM

“RRKMMYMCY (human cytomegalovirus IE1 CTL epitope peptide)” was tested, and the “MSE (MHC stabilization efficiency)” value (HLA B27) was “+ (+ = 51-99%)”.
With “RRDHSLERL (human cytomegalovirus gH CTL epitope peptide)” the “MSE (MHC stabilization efficiency)” value (HLA B27) was “− (− = 0-50%)”.
With “CRYKYLRKK (human cytomegalovirus pp28 CTL epitope peptide)” the “MSE (MHC stabilization efficiency)” value (HLA B27) was “− (− = 0-50%)”.
In the case of RRRHRQDAL, the “MSE (MHC stabilization efficiency)” value (HLA B27) is reported as “++ (++ = 100-199%)”, the “ELISPOT Responses (SFC/10^6 PBMC)” value ([1]; donor eleven) is reported as 215 SFC/10^6 PBMC and the “ELISPOT Responses (SFC/10^6 PBMC)” value ([1]; donor sixteen) is reported as 71 SFC/10^6 PBMC. For the same sequence, the “MSE (MHC stabilization efficiency)” value (HLA B8) was “+ (+ = 51-99%)”.
YRIQGKLEY was tested, and the “MSE (MHC stabilization efficiency)” value (HLA B27) was “− (− = 0-50%)” and the “ELISPOT Responses (SFC/10^6 PBMC)” value ([1]; donor sixteen) was “TC(307) SFC/10^6 PBMC”.
In the case of “GRCQMLDRR (human cytomegalovirus gH CTL epitope peptide)”, the “MSE (MHC stabilization efficiency)” value (HLA B27) is reported as “− (− = 0-50%)”.
“ARVYEIKCR (human cytomegalovirus pp28 CTL epitope peptide)” was tested, and the “MSE (MHC stabilization efficiency)” value (HLA B27) was “− (− = 0-50%)”, the “ELISPOT Responses (SFC/10^6 PBMC)” value ([1]; donor fourteen) was “RK(148) SFC/10^6 PBMC” and the “CTL response” value [2] was “Y”.
“RRIEEICMK (human cytomegalovirus IE1 CTL epitope peptide) [reference compound]” was tested, and the “MSE (MHC stabilization efficiency)” value (HLA B27) was “− (− = 0-50%)”.
“KARAKKDEL (human cytomegalovirus IE1 CTL epitope peptide)” was tested, and the “ELISPOT Responses (SFC/10^6 PBMC)” value ([1]; donor eleven) was 235 SFC/10^6 PBMC, the “ELISPOT Responses (SFC/10^6 PBMC)” value ([1]; donor four) was 231 SFC/10^6 PBMC and the “MSE (MHC stabilization efficiency)” value (HLA B7) was “−/− (− = 0-50%)”. The “MSE (MHC stabilization efficiency)” value (HLA B8) was “−/− (− = 0-50%)”.
For “TRVKRNVKK (human cytomegalovirus pp50 CTL epitope peptide)”, the “MSE (MHC stabilization efficiency)” value (HLA B27) was “− (− = 0-50%)”.
